# Experimental data published in article PMC8538351 (Pharmaceuticals, 2021).
# Read-outs that look alike come from different tables or passages of the source.
# Assays:
# [1] = Cytotoxicity by MTT assay in Vero E6 cells; type: cell-based, Green Monkey; conditions: green monkey, Vero E6 cells; Vero-E6, MTT, 48 h
# Protocol: (§1) Cell monolayers were seeded in 96-well plates. The day after cells were treated with a wide range of compound concentrations and forty-eight hours later they were subjected to an MTT assays using standard procedures. The CC50 values were graphically interpolated from dose–response curves obtained with three biological replicates.
# [2] = system: Vero E6, A549-ACE2 and Calu3 cells; experiment: Cytotoxicity by MTT assay, summary for Vero E6, A549-ACE2 and Calu3; type: cell-based; conditions: all three models, assayed doses
# Protocol: (§2) PheoA antiviral activity was further confirmed by immunofluorescence microscopy–to estimate virus propagation–and an MTT assay–to evaluate compound cytotoxicity. […] This dataset was used to determine effective concentrations (EC50 and EC90) and cytotoxicity indexes. The estimated EC50 and EC90 values were around 50 nM and 100 nM, respectively, with a wide therapeutic window in all tested cell lines (Table 1)
# as §1
# [3] = system: HCV; experiment: microbe, parasite or virus in culture; type: cell-based; conditions: Hepatitis C virus, Huh-7, 48 h
# [4] = system: retroviral vectors pseudotyped with SARS-CoV-2 Spike protein (SARS2pp); type: cell-based
# [5] = system: SARS-CoV-2 virions; experiment: Virucidal assay: pre-incubation of virions, residual infectivity titer by TCID50; type: cell-based; conditions: for virus infectivity after pre-incubation (in words): 340 nM
# [6] = system: hCoV-229E; experiment: microbe, parasite or virus in culture; type: cell-based; conditions: Human coronavirus 229E, Huh-7, 48 h
# [7] = system: SARS-CoV-2; experiment: Antiviral activity by immunofluorescence microscopy in A549-ACE2 cells; type: cell-based; conditions: A549-ACE2, MOI 0.01, 48 h; for EC50: Severe acute respiratory syndrome coronavirus 2, A549-ACE2, 48 h
# Protocol: (§3) Vero E6, A549-ACE2 or Calu3 were seeded onto 96-well plates as described above and infected in the presence of the indicated compound dose (MOI = 0.01). Twenty-four hours post infection (48 h for Calu3 cells), cells were fixed for 20 min at room temperature with a 4% formaldehyde solution in PBS, washed twice with PBS and incubated with incubation buffer (3% BSA; 0.3% Triton X100 in PBS) for 1 h. A monoclonal antibody against the N protein was diluted in the incubation buffer (1:2000, v/v; Genetex HL344) and incubated with the cells for 1 h; after this time, cells were washed with PBS and subsequently incubated with a 1:500 (v/v) dilution of a goat anti-rabbit conjugated to Alexa 488 (Invitrogen-Carlsbad, Carlsbad, CA, USA). Nuclei were stained with DAPI (Life Technologies, Budapest, Hungary) as recommended by the manufacturer during the secondary antibody incubation. Cells were washed with PBS and imaged using an automated multimode reader Spark Cyto (TECAN-Grödig, Austria).
# (§4) All the infection experiments were performed by mixing the virus and compound dilutions 1:1 (v/v) before addition to the target cells. In the time-of-addition experiments, Vero E6 cultures were inoculated (MOI from 0.5–1) for 1 h in the presence or absence of the compounds at 37 °C. Subsequently, virus-compound mixtures were left at all times, or removed and replaced with fresh 2% FBS complete media containing or not the tested compounds (see experimental scheme in Figure 7 for details). Cells were fixed 6 h post-inoculation.
# (§5) Descriptive statistics were calculated using Microsoft Excel. One-way ANOVA and post hoc tests were calculated using IBM SPSS Software Package (version 26). EC50 and EC90 values were obtained employing the PROBIT regression method using IBM SPSS vs26, except for values in Table 1 that were calculated by graphic interpolation of individual curves.
# [8] = system: vesicular stomatitis virus (VSV-GFP); experiment: microbe, parasite or virus in culture; type: cell-based; conditions: A549-ACE2
# [9] = system: SARS-CoV-2; experiment: Antiviral activity by immunofluorescence microscopy, summary for Vero E6, A549-ACE2 and Calu3; type: cell-based; conditions: Severe acute respiratory syndrome coronavirus 2, all tested cell lines
# Protocol: as §2, §3
# [10] = system: vesicular stomatitis virus (VSV-GFP); experiment: microbe, parasite or virus in culture; type: cell-based; conditions: Huh-7
# [11] = Cytotoxicity by MTT assay in Calu3 cells; type: cell-based; conditions: human
# Protocol: as §1
# [12] = system: SARS-CoV-2; experiment: Antiviral activity by immunofluorescence microscopy in Calu3 cells; type: cell-based; conditions: Calu3, MOI 0.005, 48 h; for EC50: Severe acute respiratory syndrome coronavirus 2, Calu-3, 48 h
# Protocol: as §3, §4, §5
# [13] = system: SARS-CoV-2; experiment: Antiviral activity by immunofluorescence microscopy in Vero E6 cells; type: cell-based; conditions: for EC50: Severe acute respiratory syndrome coronavirus 2, Vero C1008, 48 h
# Protocol: as §3, §4, §5
# [14] = system: SARS-CoV-2; experiment: Extracellular viral RNA load by RT-qPCR in A549-ACE2 cells; type: cell-based; conditions: A549-ACE2, 48 h
# [15] = system: SARS-CoV-2; experiment: Cytopathic effect protection assay (crystal violet) in Huh7-ACE2 cells; type: cell-based; conditions: Huh7-ACE2, 72 h
# Protocol: To confirm the antiviral potential of PheoA, a commercially available PheoA stock solution was serially diluted and mixed with a virus stock to inoculate Vero E6 and Huh7-ACE2 cells (human hepatoma cells expressing ACE2). Cells were fixed 72 h post-inoculation and stained with crystal violet to visualize the integrity of the cell monolayer.
# Vero E6 or Huh7-ACE2 cell monolayers were inoculated (MOI = 0.001) in the presence of a wide range of two-fold dilutions of the crude, or partially purified extracts, or pure compounds and incubated for 72 h. Cytopathic effect and lack thereof was visualized by crystal violet staining, as previously described. Untreated and solvent-treated cells were included in each plate as controls. […] A minimum virus dose (10 infectious units/well; MOI 0.001 in 1e4 cells/well) capable of producing overt cytopathic effect was used. Lower virus doses produce visible plaques and complete absence of CPE coincides with the expected endpoint dilution, around 8-fold lower dilutions.
# [16] = system: West Nile Virus; experiment: microbe, parasite or virus in culture; type: cell-based; conditions: Huh-7, 48 h
# [17] = system: retroviral vectors pseudotyped with VSV glycoprotein (VSVpp); type: cell-based
# [18] = system: SARS-CoV-2; experiment: Combination treatment of PheoA with RMDV in Vero E6 cells, immunofluorescence microscopy; type: cell-based; conditions: Severe acute respiratory syndrome coronavirus 2, Vero C1008, 24 h, read-out: EC50 of individual treatment
# Protocol: Thus, combination treatments were performed with increasing doses of PheoA and RMDV. Drugs were mixed in different proportions, combined with infectious SARS-CoV-2 (MOI = 0.01) and the mixtures were used to inoculate Vero E6 cells. Twenty-four hours later, cells were fixed and processed to determine the infection efficiency as using immunofluorescence microscopy. […] Increasing concentrations of PheoA improved RMDV efficacy and viceversa.
# Synergy analysis was carried out in the web-based platform Synergy Finder (https://synergyfinder.fimm.fi/, accessed on 25 September 2021).
# [19] = Cytotoxicity by MTT assay in A549-ACE2 cells; type: cell-based; conditions: human
# Protocol: as §1
# [20] = system: SARS-CoV-2; experiment: Time-of-addition experiment in Vero E6 cells (single-cycle infection); type: cell-based; conditions: for efficacy when added during the virus entry phase (in words): versus maintained at all times
# Protocol: Next, antiviral efficacy of PheoA was compared when PheoA was (i) present at all times, (ii) added only during virus inoculation, or (iii) added only after virions had effectively penetrated the cells in single-cycle infection experiments ([…]).
# as §4
# [21] = system: Huh7 cells; conditions: Huh7, 48 h
# [22] = system: SARS-CoV-2; experiment: Cytopathic effect protection assay (crystal violet) in Vero E6 cells; type: cell-based; conditions: Vero E6, 72 h
# Protocol: In order to explore for the presence of anti-SARS-CoV-2 metabolites in M. polymorpha, we prepared crude extracts of two different M. polymorpha subspecies (subsp. ruderalis from Japan and subsp. polymorpha, from Spain). The anti-SARS-CoV-2 activity of the resulting crude extracts was tested in Vero E6 cell monolayers infected with the SARS-CoV-2 NL2020 strain (Figure 1A). Infection was carried out at a multiplicity of infection (MOI) of 0.001 for 72 h. In the absence of antiviral activity, SARS-CoV-2 infection triggers cell death of Vero E6 cells and results in loss of cell biomass in the well, which is readily visualized as a strong reduction in crystal violet staining (DMSO, Figure 1A). […] Thus, protective activity may be used as a rapid qualitative surrogate assay to facilitate identification of substances with antiviral potential.
# Vero E6 or Huh7-ACE2 cell monolayers were inoculated (MOI = 0.001) in the presence of a wide range of two-fold dilutions of the crude, or partially purified extracts, or pure compounds and incubated for 72 h. Cytopathic effect and lack thereof was visualized by crystal violet staining, as previously described. Untreated and solvent-treated cells were included in each plate as controls. […] A minimum virus dose (10 infectious units/well; MOI 0.001 in 1e4 cells/well) capable of producing overt cytopathic effect was used. […]
# [23] = system: SARS-CoV-2; conditions: monolayers protected down to this concentration; read-out: reported EC50; cited from earlier work
# [24] = system: SARS-CoV-2; experiment: Viral RNA load by RT-qPCR in Vero E6 cells; type: cell-based; conditions: 25 µM, Vero E6, MOI 0.001, 72 h post infection
# [25] = system: Vero E6 cells; experiment: Cytotoxicity by MTT assay in Vero E6 cells; type: cell-based, Green Monkey; conditions: Vero E6, MTT, parallel cultures
# Protocol: as §1
# [26] = mean ± SD n = 3, graphic interpolation
# [27] = Vero E6, MOI 0.005, 48 h, PROBIT regression
smiles,measurement,setting,value
"C=Cc1c(C)c2cc3nc(c4c5[nH]c(cc6nc(cc1[nH]2)C(C)=C6CC)c(C)c5C(=O)[C@@H]4C(=O)OC)[C@@H](CCC(=O)O)[C@@H]3C [PheoA, Pheophorbide a]",CC50 at 48 h,[1],> 8.42 µM
same,cytotoxicity (in words),[2],no cytotoxicity was observed
same,EC50,[3],0.3 µM
same,maximum reduction of infection efficiency,"[4]; maximum dose 675 nM, 48 h",≤ 40%
same,virus infectivity after pre-incubation (in words),[5]; 30 min,reduced partially
same,virus infectivity after pre-incubation (in words),[5]; 60 min,below detection limits
same,virus infectivity after pre-incubation (in words),"[5]; up to 15 min, room temperature",did not have any significant impact on virus infectivity
same,dose giving statistically significant reduction in remaining virus infectivity,"[5]; 30 min pre-incubation, 10^5 TCID50/mL, room temperature",above 67 nM
same,EC50,[6],0.128 µM
same,EC50,[7]; [26],0.062 ± 0.025 µM
same,EC90,"[7]; Severe acute respiratory syndrome coronavirus 2, mean ± SD n = 3",0.201 ± 0.084 µM
same,EC50,[8],0.578 µM
same,EC50,[9]; read-out: estimated EC50,~0.05 µM
same,EC90,[9]; read-out: estimated EC90,~0.1 µM
same,EC50,[10],0.506 µM
same,CC50 at 48 h,[11],> 8.42 µM
same,EC50,[12]; [26],0.035 ± 0.02 µM
same,EC90,"[12]; Severe acute respiratory syndrome coronavirus 2, Calu-3, mean ± SD n = 3",0.098 ± 0.008 µM
same,EC50,"[13]; Vero-E6, MOI 0.005, 48 h, mean ± SD n = 3, graphic interpolation",0.054 ± 0.013 µM
same,EC90,"[13]; Severe acute respiratory syndrome coronavirus 2, Vero C1008, Vero-E6, MOI 0.005, 48 h, mean ± SD n = 3",0.106 ± 0.016 µM
same,viral RNA accumulation (in words),[14]; increasing concentrations,reduced viral RNA accumulation in a dose-dependent manner
same,concentration with consistent protective capacity,[15],above 65 nM
same,EC50,[16],0.064 µM
same,maximum reduction of infection efficiency,[17],≤ 40%
same,EC50,[18],0.04 µM
same,CC50 at 48 h,[19],2.6 ± 0.5 µM
same,antiviral activity when maintained at all times (in words),"[20]; Vero E6, MOI 5, 6 h",expected antiviral activity
same,efficacy when added during the virus entry phase (in words),"[20]; Vero E6, MOI 5, 6 h",nearly identical
same,efficacy when added after virion internalization,"[20]; Vero E6, MOI 5, fixed 6 h post-inoculation",ca. 6 % of the maximum efficacy
same,cytotoxicity (in words),[21],no cytotoxicity was observed
same,concentration with consistent protective capacity,[22],above 65 nM
"CCC(CC)COC(=O)[C@H](C)N[P@](=O)(OC[C@H]1O[C@@](C#N)(c2ccc3c(N)ncnn23)[C@H](O)[C@@H]1O)Oc1ccccc1 [RMDV, Remdesivir]",EC50,[23],1.5 µM
same,viral RNA load,[24],undetectable
same,reduction of extracellular viral RNA,[14]; 5 µM,two orders of magnitude
same,EC50,[18],2 µM
same,antiviral activity when maintained at all times (in words),"[20]; Vero E6, MOI 5, 6 h",highly effective at reducing infection efficiency
"C=Cc1c(C)c2cc3nc(c4c5[nH]c(cc6nc(cc1[nH]2)C(C)=C6CC)c(C)c5C(=O)[C@@H]4C(=O)OC)[C@@H](CCC(=O)O)[C@@H]3C [Semi-synthetic PheoA, Pheophorbide a]",EC50,[7]; PROBIT regression,0.074 µM
same,EC50,[12]; PROBIT regression,0.038 µM
same,EC50,[13]; [27],0.051 µM
"Cc1ccc(NC(=O)c2ccc(CN3CCN(C)CC3)cc2)cc1Nc1nccc(-c2cccnc2)n1 [imatinib, Imatinib]",entry inhibition (in words),[4]; 15 µM,selectively inhibited SARS2pp
same,entry inhibition (in words),[17]; 15 µM,not VSVpp entry
same,efficacy when added after virion internalization (in words),"[20]; 15 µM, Vero E6, MOI 5, 6 h",greatly lost efficacy
same,antiviral activity when maintained at all times (in words),"[20]; Vero E6, MOI 5, 6 h",expected antiviral activity
same,efficacy when added during the virus entry phase (in words),"[20]; Vero E6, MOI 5, 6 h",comparable efficacy
"C=Cc1c(C)c2cc3nc(c4c5[nH]c(cc6nc(cc1[nH]2)C(C)=C6CC)c(C)c5C(=O)C4)[C@@H](CCC(=O)O)[C@@H]3C [pPheoA, pyropheophorbide a]",cytotoxicity (in words),[25],absence of measurable cytotoxicity
same,EC50,[13]; [27],0.185 µM
